Where two headings read alike, the source gives them in different places.
Tested on: hESC (HS420) expressing Ki67-SR39
Assay: ATP-based cell survival assay, GCV-induced cell death
Set-up: species or system human
Settings: for EC50: Homo sapiens
Procedure: Our first generation of suicide gene was engineered with the wild type thymidine kinase (wt-TK). To improve the suicide gene efficacy, we investigated different TK variants; wt-TK, 30-GMK, SR39, SR39h, and SR39h D116E variants. These sequences were chosen based on the analysis of the literature investigating HSV1-TK variants, as well as a gain of function mutation in the CMV UL-97 kinase. The efficacy of each variants was determined as percentage of cell survival following prodrug treatment compared to non-treated hESC. For this purpose, we used the ATP-based assay, which measures cellular ATP content and thereby provides a reliable estimate of the number of healthy cells. The 50% effective concentration (EC50) was defined as the drug concentration required to reduce the percentage of cell survival by 50%. […] In order to optimize our system, we first replaced the wt-TK by the 30-GMK variant, which is a fusion between the 30 TK variant and guanylate kinase (GMK). Note that GMK is mediating the second phosphorylation step of antiviral nucleoside analogs. […] Microbial codon usage might not yield optimal results in human cells. We therefore adapted the SR39 sequence to a typical human codon usage. For this purpose, 218 of the total 376 codons of the SR39 sequence were changed (for details see Supplementary Sequence 1 and Method section). We will refer to this sequence as the SR39h variant.
Figure 1 EC50 of ganciclovir (GCV) in cell expressing different thymidine kinase (TK) variants. […] Number of surviving cells was monitored using bioluminescent ATP-based assay. […]
Cell culture plate (96 wells plate Corning #3907, Corning, Lonay, Switzerland) were pre-coated with 60 μL per well of Poly-L-ornithine solution (Sigma, Merk, Eysins, Switzerland) at 37 °C for 30 min. […] For EC50 assays, the medium was changed daily for 4 days, then cell viability was assessed using an ATP-based assay. EC50 values for each construct were calculated using a four parameters equation (GraphPad, Prism8, San Diego, CA, USA). […]

For Nc1nc(O)c2ncn(COC(CO)CO)c2n1 [GCV, ganciclovir], the “Fold increase compare to wt-TK (fold reduction in EC50)” value (GCV EC50 ratio, Ki67-SR39 vs wt-TK) was 50 fold, the EC50 (96 h, read-out: EC50 of GCV (cell survival)) was 2 nM and the EC50 (96 h GCV exposure, Ki67-SR39, read-out: GCV EC50) was 1.9 nM.

— paper PMC8834506, “Optimization of Thymidine Kinase-Based Safety Switch for Neural Cell Therapy” (Cells, 2022)
